Columns and labels:
mushroom tyrosinase = test: Inhibition of tyrosinase activity; format: biochemical; conditions: L-tyrosine, 37° C., 20 minutes, absorbance 490 nm
Experimental: The effect of New Materials 31 and 32 on inhibiting tyrosinase activity was evaluated.
Specifically, tyrosinase and tyrosine derived from mushroom were obtained from Sigma Chemical. Together with 150 μl of 0.1 M phosphate buffer (pH 6.5), 8 μl of mushroom tyrosinase (2,100 unit/ml) and 0.05 M concentration of L-tyrosine, arbutin and New Materials 31 and 32 were treated at the concentrations of following Table 3, respectively. The tyrosinase activity was evaluated by performing the enzyme reaction at 37° C. for 20 minutes and then measuring absorbance at 490 nm using a microplate reader (Bio-Rad 3550, Richmond, Calif., U.S.A.).

healthy adult examinees = test: HRIPT (Human repeated insult patch tests), skin accumulated stimulus; format: in vivo; set-up: key to skin reactivity (ICDRG criteria): −: negative (no response); ±: doubtful or slight erythema, etc.; +: weak reaction (which is accompanied with no phlyctenule), erythema, papule; ++: severe reaction (which is accompanied with phylctenule), erythema, papule, phlyctenule; +++: strong reaction, bullae reaction; conditions: for average reactivity: 9 patches, 15 examinees; for Number of examinees who exhibited ±, +, or ++ reactivity 1st: 1st patch; for Number of examinees who exhibited ±, +, or ++ reactivity 2nd: 2nd patch; for Number of examinees who exhibited ±, +, or ++ reactivity 3rd: 3rd patch; for Number of examinees who exhibited ±, +, or ++ reactivity 4th: 4th patch; for Number of examinees who exhibited ±, +, or ++ reactivity 5th: 5th patch; for Number of examinees who exhibited ±, +, or ++ reactivity 6th: 6th patch; for Number of examinees who exhibited ±, +, or ++ reactivity 7th: 7th patch; for Number of examinees who exhibited ±, +, or ++ reactivity 8th: 8th patch; for Number of examinees who exhibited ±, +, or ++ reactivity 9th: 9th patch
Experimental: HRIPT (Human repeated insult patch tests) was conducted in order to identify skin accumulated stimulus of quercetin3-O-[3-O″-(E)-p-coumaroyl][β-D-glucopyranosyl-(1→3)-O-α-L-rhamnopyranosyl-(1→6)-O-β-D-glucopyranoside] and quercetin3-O-[3-O″-(E)-p-coumaroyl][α-L-rhamnopyranosyl-(1→6)-O-β-D-glucopyranoside]and to calculate the concentration range that can be used in skin.
Specifically, 15 healthy adult examinees were randomly selected, and test compositions in which the compounds were respectively comprised in an amount of 0.5 wt. %, 1 wt. %, and 3 wt. % (the compositions for skin, comprising an emulsifying agent, a stabilizer, purified water, etc. in addition to the compounds) were dropped in the amount of 20 μl per chamber (IQ chamber, Epitest Ltd, Finland), and patched on the right site of the upper back of the examinees, and then, after 24 hours, the patch was replaced with a new patch. A total of 9 patches were conducted, three times a week for total 3 weeks, in such manner, the skin reactions before and after patch were examined every time, and the skin reactions until 48 hours after removing the final patch were observed, and the average reactivity was observed.
The skin reaction was determined according to the criteria of International Contact Dermatitis Research Group (ICDRG). In the above table, “New Material 31” refers to quercetin3-O-[3-O″-(E)-p-coumaroyl][β-D-glucopyranosyl-(1→3)-O-α-L-rhamnopyranosyl-(1→6)-O-β-D-glucopyranoside], and “New Material 32” refers to quercetin3-O-[3-O″-(E)-p-coumaroyl][α-L-rhamnopyranosyl-(1→6)-O-β-D-glucopyranoside].

C[C@@H]1O[C@@H](OC[C@H]2O[C@@H](Oc3c(-c4ccc(O)c(O)c4)oc4cc(O)cc(O)c4c3=O)[C@H](O)[C@@H](OC(=O)/C=C/c3ccc(O)cc3)[C@@H]2O)[C@H](O)[C@H](O[C@@H]2O[C@H](CO)[C@@H](O)[C@H](O)[C@H]2O)[C@H]1O [New Material 31, quercetin3-O-[3-O″-(E)-p-coumaroyl][β-D-glucopyranosyl-(1→3)-O-α-L-rhamnopyranosyl-(1→6)-O-β-D-glucopyranoside]]
IC50 inhibiting tyrosinase activity (mushroom tyrosinase): 16 ppm
average reactivity (healthy adult examinees; 0.5 wt.% in test composition): 0
skin reactivity (ICDRG criteria) (healthy adult examinees; 0.5 wt.%, 1 wt.% and 3 wt.%, 9 patches in 3 weeks): −
Number of examinees who exhibited ±, +, or ++ reactivity 1st (healthy adult examinees; 0.5 wt.%, line 1 of 3 (±)): 0 number
Number of examinees who exhibited ±, +, or ++ reactivity 1st (healthy adult examinees; 0.5 wt.%, line 2 of 3 (+)): 0 number
Number of examinees who exhibited ±, +, or ++ reactivity 1st (healthy adult examinees; 0.5 wt.%, line 3 of 3 (++)): 0 number
Number of examinees who exhibited ±, +, or ++ reactivity 2nd (healthy adult examinees; 0.5 wt.%, line 1 of 3 (±)): 0 number
Number of examinees who exhibited ±, +, or ++ reactivity 2nd (healthy adult examinees; 0.5 wt.%, line 2 of 3 (+)): 0 number
Number of examinees who exhibited ±, +, or ++ reactivity 2nd (healthy adult examinees; 0.5 wt.%, line 3 of 3 (++)): 0 number
Number of examinees who exhibited ±, +, or ++ reactivity 3rd (healthy adult examinees; 0.5 wt.%, line 1 of 3 (±)): 0 number
Number of examinees who exhibited ±, +, or ++ reactivity 3rd (healthy adult examinees; 0.5 wt.%, line 2 of 3 (+)): 0 number
Number of examinees who exhibited ±, +, or ++ reactivity 3rd (healthy adult examinees; 0.5 wt.%, line 3 of 3 (++)): 0 number
Number of examinees who exhibited ±, +, or ++ reactivity 4th (healthy adult examinees; 0.5 wt.%, line 1 of 3 (±)): 0 number
Number of examinees who exhibited ±, +, or ++ reactivity 4th (healthy adult examinees; 0.5 wt.%, line 2 of 3 (+)): 0 number
Number of examinees who exhibited ±, +, or ++ reactivity 4th (healthy adult examinees; 0.5 wt.%, line 3 of 3 (++)): 0 number
Number of examinees who exhibited ±, +, or ++ reactivity 5th (healthy adult examinees; 0.5 wt.%, line 1 of 3 (±)): 0 number
Number of examinees who exhibited ±, +, or ++ reactivity 5th (healthy adult examinees; 0.5 wt.%, line 2 of 3 (+)): 0 number
Number of examinees who exhibited ±, +, or ++ reactivity 5th (healthy adult examinees; 0.5 wt.%, line 3 of 3 (++)): 0 number
Number of examinees who exhibited ±, +, or ++ reactivity 6th (healthy adult examinees; 0.5 wt.%, line 1 of 3 (±)): 0 number
Number of examinees who exhibited ±, +, or ++ reactivity 6th (healthy adult examinees; 0.5 wt.%, line 2 of 3 (+)): 0 number
Number of examinees who exhibited ±, +, or ++ reactivity 6th (healthy adult examinees; 0.5 wt.%, line 3 of 3 (++)): 0 number
Number of examinees who exhibited ±, +, or ++ reactivity 7th (healthy adult examinees; 0.5 wt.%, line 1 of 3 (±)): 0 number
Number of examinees who exhibited ±, +, or ++ reactivity 7th (healthy adult examinees; 0.5 wt.%, line 2 of 3 (+)): 0 number
Number of examinees who exhibited ±, +, or ++ reactivity 7th (healthy adult examinees; 0.5 wt.%, line 3 of 3 (++)): 0 number
Number of examinees who exhibited ±, +, or ++ reactivity 8th (healthy adult examinees; 0.5 wt.%, line 1 of 3 (±)): 0 number
Number of examinees who exhibited ±, +, or ++ reactivity 8th (healthy adult examinees; 0.5 wt.%, line 2 of 3 (+)): 0 number
Number of examinees who exhibited ±, +, or ++ reactivity 8th (healthy adult examinees; 0.5 wt.%, line 3 of 3 (++)): 0 number
Number of examinees who exhibited ±, +, or ++ reactivity 9th (healthy adult examinees; 0.5 wt.%, line 1 of 3 (±)): 0 number
Number of examinees who exhibited ±, +, or ++ reactivity 9th (healthy adult examinees; 0.5 wt.%, line 2 of 3 (+)): 0 number
Number of examinees who exhibited ±, +, or ++ reactivity 9th (healthy adult examinees; 0.5 wt.%, line 3 of 3 (++)): 0 number
average reactivity (healthy adult examinees; 1 wt.% in test composition): 0
Number of examinees who exhibited ±, +, or ++ reactivity 1st (healthy adult examinees; 1 wt.%, line 1 of 3 (±)): 0 number
Number of examinees who exhibited ±, +, or ++ reactivity 1st (healthy adult examinees; 1 wt.%, line 2 of 3 (+)): 0 number
Number of examinees who exhibited ±, +, or ++ reactivity 1st (healthy adult examinees; 1 wt.%, line 3 of 3 (++)): 0 number
Number of examinees who exhibited ±, +, or ++ reactivity 2nd (healthy adult examinees; 1 wt.%, line 1 of 3 (±)): 0 number
Number of examinees who exhibited ±, +, or ++ reactivity 2nd (healthy adult examinees; 1 wt.%, line 2 of 3 (+)): 0 number
Number of examinees who exhibited ±, +, or ++ reactivity 2nd (healthy adult examinees; 1 wt.%, line 3 of 3 (++)): 0 number
Number of examinees who exhibited ±, +, or ++ reactivity 3rd (healthy adult examinees; 1 wt.%, line 1 of 3 (±)): 0 number
Number of examinees who exhibited ±, +, or ++ reactivity 3rd (healthy adult examinees; 1 wt.%, line 2 of 3 (+)): 0 number
Number of examinees who exhibited ±, +, or ++ reactivity 3rd (healthy adult examinees; 1 wt.%, line 3 of 3 (++)): 0 number
Number of examinees who exhibited ±, +, or ++ reactivity 4th (healthy adult examinees; 1 wt.%, line 1 of 3 (±)): 0 number
Number of examinees who exhibited ±, +, or ++ reactivity 4th (healthy adult examinees; 1 wt.%, line 2 of 3 (+)): 0 number
Number of examinees who exhibited ±, +, or ++ reactivity 4th (healthy adult examinees; 1 wt.%, line 3 of 3 (++)): 0 number
Number of examinees who exhibited ±, +, or ++ reactivity 5th (healthy adult examinees; 1 wt.%, line 1 of 3 (±)): 0 number
Number of examinees who exhibited ±, +, or ++ reactivity 5th (healthy adult examinees; 1 wt.%, line 2 of 3 (+)): 0 number
Number of examinees who exhibited ±, +, or ++ reactivity 5th (healthy adult examinees; 1 wt.%, line 3 of 3 (++)): 0 number
Number of examinees who exhibited ±, +, or ++ reactivity 6th (healthy adult examinees; 1 wt.%, line 1 of 3 (±)): 0 number
Number of examinees who exhibited ±, +, or ++ reactivity 6th (healthy adult examinees; 1 wt.%, line 2 of 3 (+)): 0 number
Number of examinees who exhibited ±, +, or ++ reactivity 6th (healthy adult examinees; 1 wt.%, line 3 of 3 (++)): 0 number
Number of examinees who exhibited ±, +, or ++ reactivity 7th (healthy adult examinees; 1 wt.%, line 1 of 3 (±)): 0 number
Number of examinees who exhibited ±, +, or ++ reactivity 7th (healthy adult examinees; 1 wt.%, line 2 of 3 (+)): 0 number
Number of examinees who exhibited ±, +, or ++ reactivity 7th (healthy adult examinees; 1 wt.%, line 3 of 3 (++)): 0 number
Number of examinees who exhibited ±, +, or ++ reactivity 8th (healthy adult examinees; 1 wt.%, line 1 of 3 (±)): 0 number
Number of examinees who exhibited ±, +, or ++ reactivity 8th (healthy adult examinees; 1 wt.%, line 2 of 3 (+)): 0 number
Number of examinees who exhibited ±, +, or ++ reactivity 8th (healthy adult examinees; 1 wt.%, line 3 of 3 (++)): 0 number
Number of examinees who exhibited ±, +, or ++ reactivity 9th (healthy adult examinees; 1 wt.%, line 1 of 3 (±)): 0 number
Number of examinees who exhibited ±, +, or ++ reactivity 9th (healthy adult examinees; 1 wt.%, line 2 of 3 (+)): 0 number
Number of examinees who exhibited ±, +, or ++ reactivity 9th (healthy adult examinees; 1 wt.%, line 3 of 3 (++)): 0 number
average reactivity (healthy adult examinees; 3 wt.% in test composition): 0
Number of examinees who exhibited ±, +, or ++ reactivity 1st (healthy adult examinees; 3 wt.%, line 1 of 3 (±)): 0 number
Number of examinees who exhibited ±, +, or ++ reactivity 1st (healthy adult examinees; 3 wt.%, line 2 of 3 (+)): 0 number
Number of examinees who exhibited ±, +, or ++ reactivity 1st (healthy adult examinees; 3 wt.%, line 3 of 3 (++)): 0 number
Number of examinees who exhibited ±, +, or ++ reactivity 2nd (healthy adult examinees; 3 wt.%, line 1 of 3 (±)): 0 number
Number of examinees who exhibited ±, +, or ++ reactivity 2nd (healthy adult examinees; 3 wt.%, line 2 of 3 (+)): 0 number
Number of examinees who exhibited ±, +, or ++ reactivity 2nd (healthy adult examinees; 3 wt.%, line 3 of 3 (++)): 0 number
Number of examinees who exhibited ±, +, or ++ reactivity 3rd (healthy adult examinees; 3 wt.%, line 1 of 3 (±)): 0 number
Number of examinees who exhibited ±, +, or ++ reactivity 3rd (healthy adult examinees; 3 wt.%, line 2 of 3 (+)): 0 number
Number of examinees who exhibited ±, +, or ++ reactivity 3rd (healthy adult examinees; 3 wt.%, line 3 of 3 (++)): 0 number
Number of examinees who exhibited ±, +, or ++ reactivity 4th (healthy adult examinees; 3 wt.%, line 1 of 3 (±)): 0 number
Number of examinees who exhibited ±, +, or ++ reactivity 4th (healthy adult examinees; 3 wt.%, line 2 of 3 (+)): 0 number
Number of examinees who exhibited ±, +, or ++ reactivity 4th (healthy adult examinees; 3 wt.%, line 3 of 3 (++)): 0 number
Number of examinees who exhibited ±, +, or ++ reactivity 5th (healthy adult examinees; 3 wt.%, line 1 of 3 (±)): 0 number
Number of examinees who exhibited ±, +, or ++ reactivity 5th (healthy adult examinees; 3 wt.%, line 2 of 3 (+)): 0 number
Number of examinees who exhibited ±, +, or ++ reactivity 5th (healthy adult examinees; 3 wt.%, line 3 of 3 (++)): 0 number
Number of examinees who exhibited ±, +, or ++ reactivity 6th (healthy adult examinees; 3 wt.%, line 1 of 3 (±)): 0 number
Number of examinees who exhibited ±, +, or ++ reactivity 6th (healthy adult examinees; 3 wt.%, line 2 of 3 (+)): 0 number
Number of examinees who exhibited ±, +, or ++ reactivity 6th (healthy adult examinees; 3 wt.%, line 3 of 3 (++)): 0 number
Number of examinees who exhibited ±, +, or ++ reactivity 7th (healthy adult examinees; 3 wt.%, line 1 of 3 (±)): 0 number
Number of examinees who exhibited ±, +, or ++ reactivity 7th (healthy adult examinees; 3 wt.%, line 2 of 3 (+)): 0 number
Number of examinees who exhibited ±, +, or ++ reactivity 7th (healthy adult examinees; 3 wt.%, line 3 of 3 (++)): 0 number
Number of examinees who exhibited ±, +, or ++ reactivity 8th (healthy adult examinees; 3 wt.%, line 1 of 3 (±)): 0 number
Number of examinees who exhibited ±, +, or ++ reactivity 8th (healthy adult examinees; 3 wt.%, line 2 of 3 (+)): 0 number
Number of examinees who exhibited ±, +, or ++ reactivity 8th (healthy adult examinees; 3 wt.%, line 3 of 3 (++)): 0 number
Number of examinees who exhibited ±, +, or ++ reactivity 9th (healthy adult examinees; 3 wt.%, line 1 of 3 (±)): 0 number
Number of examinees who exhibited ±, +, or ++ reactivity 9th (healthy adult examinees; 3 wt.%, line 2 of 3 (+)): 0 number
Number of examinees who exhibited ±, +, or ++ reactivity 9th (healthy adult examinees; 3 wt.%, line 3 of 3 (++)): 0 number

Reference: patent US11306117B2, “Whitening composition containing novel quercetin-based compound” (AMOREPACIFIC CORPORATION, priority 2017, dated 2022)
